This is an account of results in ChEMBL document CHEMBL4321794, “Discovery and Optimization of 2-Arylquinazolin-4-ones into a Potent and Selective Tankyrase Inhibitor Modulating Wnt Pathway Activity” (J Med Chem, 2019).

A word on the IC50: it is the concentration that gives 50% inhibition. What is called Papp A→B is how fast a substance crosses the layer from the apical side. As a reminder, the half-life is the time in which the quantity being followed falls by half. Low readings indicate fast loss, high ones slow loss.

Calls of active or inactive are those of the source. The rule behind the calls is not given here.

The target of series [1] is T1, Protein mono-ADP-ribosyltransferase PARP11 (Homo sapiens, UniProt Q9NR21).
T1 sequence (Q9NR21 whole entry): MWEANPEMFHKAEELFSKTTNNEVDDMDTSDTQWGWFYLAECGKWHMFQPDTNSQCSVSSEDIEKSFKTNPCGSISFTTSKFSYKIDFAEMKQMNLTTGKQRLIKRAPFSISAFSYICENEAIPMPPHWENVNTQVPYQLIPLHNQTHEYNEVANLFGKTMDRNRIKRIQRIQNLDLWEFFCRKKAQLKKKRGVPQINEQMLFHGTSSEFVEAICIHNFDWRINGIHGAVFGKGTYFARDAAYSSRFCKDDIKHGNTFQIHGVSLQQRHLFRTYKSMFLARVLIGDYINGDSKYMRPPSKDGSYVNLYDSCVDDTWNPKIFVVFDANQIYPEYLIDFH
Description: Inhibition of human N-terminal GST-tagged PARP11 (8 to 338 residues) expressed in baculovirus infected Sf9 insect cells using biotinylated substrate by chemiluminescence method.

The nature of series [2]: Intrinsic clearance in mouse liver microsomes assessed per mg protein in presence of NADPH by UPLC analysis. Type of series: ADME, Microsome. The conditions noted are these: read-out: CLH. For orientation: Liver microsomes are a subcellular fraction often used to study metabolism.
A short description of series [3]: Apparent permeability across apical to basolateral side in human Caco2 cells at 1 uM after 2 hrs by LC-MS/MS analysis. Type of series: ADME, cell-based. The note with it: Caco-2. (In general: Caco-2 cells form a polarised layer with tight junctions and transporters.)
Series [4] in a line: Half-life in mouse. Type of series: ADME, organism-based. The note with it: in vivo.
The test system of series [5] is Mus musculus. Description: Ex vivo inhibition of tankyrase 1/2 in human DLD1 cells xenografted in immunodeficient athymic nude mouse assessed as increase in axin-2 level in tumor lysates at 10 mg/kg, po administered via gavage measured after 12 hrs by luminex based bead assay. In kind it is functional, organism-based. The note with it: Neoplasm, Lysate. In general terms: In xenograft studies the graft and the host belong to different species.

In series [6] the target is T2, Protein mono-ADP-ribosyltransferase PARP3 (Homo sapiens, UniProt Q9Y6F1).
T2 sequence (Q9Y6F1 whole entry): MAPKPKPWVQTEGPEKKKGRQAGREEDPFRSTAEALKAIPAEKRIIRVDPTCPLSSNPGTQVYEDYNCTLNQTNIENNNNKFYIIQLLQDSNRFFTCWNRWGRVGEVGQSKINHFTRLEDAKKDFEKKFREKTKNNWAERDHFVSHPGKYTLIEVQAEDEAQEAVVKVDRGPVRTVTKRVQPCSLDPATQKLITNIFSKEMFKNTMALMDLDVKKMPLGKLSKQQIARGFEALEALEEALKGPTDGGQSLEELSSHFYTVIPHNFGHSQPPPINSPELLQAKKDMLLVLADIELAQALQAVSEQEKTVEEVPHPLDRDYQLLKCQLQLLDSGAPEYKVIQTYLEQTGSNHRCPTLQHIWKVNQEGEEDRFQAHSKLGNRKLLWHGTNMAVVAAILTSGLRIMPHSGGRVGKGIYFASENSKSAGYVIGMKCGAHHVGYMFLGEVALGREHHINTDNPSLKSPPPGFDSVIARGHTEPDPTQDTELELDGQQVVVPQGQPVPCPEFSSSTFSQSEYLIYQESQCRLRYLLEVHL
Description: Inhibition of N-terminal GST-tagged recombinant full length human PARP3 expressed in Baculovirus infected Sf9 cells using biotinylated substrate after 1 hr by chemiluminescence method.

In series [7] the target is T3, Poly [ADP-ribose] polymerase 1 (Homo sapiens, UniProt P09874). The series is described as follows: Inhibition of N-terminal GST-tagged recombinant full length human PARP1 expressed in Baculovirus infected Sf9 cells using biotinylated substrate after 1 hr by chemiluminescence method.
Series [8] relates to Mus musculus. Description: Ex vivo inhibition of tankyrase 1/2 in human DLD1 cells xenografted in immunodeficient athymic nude mouse assessed as increase in axin-2 level in tumor lysates at 10 to 90 mg/kg, po administered via gavage by luminex based bead assay. In kind it is functional, organism-based. The note with it: Neoplasm, Lysate, TDE = time-dependent effect.
For series [9], the target named is T3, Poly [ADP-ribose] polymerase 1. The series is described as follows: Inhibition of recombinant human full-length Myc/His-tagged Parp-1 expressed in baculovirus infected Sf21 insect cells assessed as reduction in auto-PARsylation using activated DNA as substrate incubated for 150 mins in presence of NAD and bio-NAD as co-substrate by TR-FRET assay.

T3 sequence (P09874 whole entry): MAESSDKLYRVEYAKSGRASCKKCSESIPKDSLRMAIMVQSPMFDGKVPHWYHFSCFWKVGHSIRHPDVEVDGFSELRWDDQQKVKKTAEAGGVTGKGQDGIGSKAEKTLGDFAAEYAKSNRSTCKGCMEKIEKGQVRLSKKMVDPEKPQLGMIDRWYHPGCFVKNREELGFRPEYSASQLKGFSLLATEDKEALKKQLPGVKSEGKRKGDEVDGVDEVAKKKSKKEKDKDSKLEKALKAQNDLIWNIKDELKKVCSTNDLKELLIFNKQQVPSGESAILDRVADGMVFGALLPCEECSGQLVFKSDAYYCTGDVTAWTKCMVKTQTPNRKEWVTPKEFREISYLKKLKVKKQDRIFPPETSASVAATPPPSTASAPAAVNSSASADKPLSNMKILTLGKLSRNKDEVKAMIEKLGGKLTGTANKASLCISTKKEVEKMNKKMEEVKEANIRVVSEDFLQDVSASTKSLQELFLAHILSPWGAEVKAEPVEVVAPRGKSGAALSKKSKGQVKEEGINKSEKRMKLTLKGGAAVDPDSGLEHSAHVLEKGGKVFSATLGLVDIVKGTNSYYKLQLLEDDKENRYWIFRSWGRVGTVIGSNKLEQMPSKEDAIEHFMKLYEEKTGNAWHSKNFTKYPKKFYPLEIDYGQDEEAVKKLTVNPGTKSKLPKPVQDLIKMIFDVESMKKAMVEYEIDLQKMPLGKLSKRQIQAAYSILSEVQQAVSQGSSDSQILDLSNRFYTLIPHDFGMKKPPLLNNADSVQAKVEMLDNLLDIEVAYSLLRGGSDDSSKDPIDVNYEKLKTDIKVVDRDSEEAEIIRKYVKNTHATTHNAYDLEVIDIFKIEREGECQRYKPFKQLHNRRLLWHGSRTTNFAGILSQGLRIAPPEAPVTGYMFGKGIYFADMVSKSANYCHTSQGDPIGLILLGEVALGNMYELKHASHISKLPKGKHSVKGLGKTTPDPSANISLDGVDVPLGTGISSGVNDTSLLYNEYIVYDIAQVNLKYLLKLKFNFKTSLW

With `CC(C)(O)c1ccc(-c2nc3c(F)cc(F)cc3c(=O)[nH]2)cc1`, the IC50 was greater than 10000 nM in series [1], 1900 nM in series [6], 710 nM in [7] and 782 nM in [9]. Also, the microsomal CLint in series [2] was determined as 22 µL/min/mg. In [3], the Papp A→B at 2 h, 1 µM is 40 ×10⁻⁶ cm/s. In [4], this compound gave a half-life of 1.4 h. Further, the inhibition result in the series with Mus musculus [5] is “Active”. Moreover, the inhibition result in the series with Mus musculus [8] is “Tde”.
